Measured values as given in publication PMC11424460, “Inhibitory effects of calcium channel blockers nisoldipine and nimodipine on ivacaftor metabolism and their underlying mechanism” (Frontiers in Pharmacology, 2024).
“Also recorded” adds a separate entry of the source. Where two headings read alike, the source gives them in different places. Values belong to the molecule of their own block, whether it stands above or below them.

Legend:
[1] = system: CYP3A; conditions: strong CYP3A inhibitor co-administered; FDA report; ref Garg et al., 2019; cited from earlier work
[2] = system: ivacaftor metabolism in rat liver microsomes (RLM); assay: Screening of 79 drugs (100 μM) for inhibition of ivacaftor metabolism in RLM incubation; format: in vitro ADME; conditions: each drug 100 μM, 0.3 mg/mL RLM
Protocol: The supernatants were centrifuged at 100,000 × g for 1 h, and the pellets were resuspended with cold […] PBS. Protein concentrations were determined by Bradford Protein Assay Kit (Thermo Scientific, Waltham, MA, United States).
This system was made up of 200 μL of incubation solution consisting of 0.3 mg/mL RLM or 0.4 mg/mL HLM, 1.0 mM NADPH, pH 7.4 PBS and ivacaftor. […] The solution should be pre-incubated at 37°C for 5 min before adding NADPH. Following the addition of NADPH, the mixture should be incubated for 40 min. The reaction should then be stopped at −80°C. After the enzyme reaction was completed, 20 μL of 500 ng/mL IS solution and 400 μL acetonitrile (protein precipitating agent) were added to the mixture. The mixture was vortexed for 2 min and then centrifuged at 13,000 rpm for 10 min. After centrifugation, 100 μL of the supernatant was quantified using UPLC-MS/MS.
Each drug was used at a concentration of 100 μM as the inhibitor. The culture system was 200 μL and included 0.3 mg/mL RLM, 1.0 mM NADPH, PBS, ivacaftor, and inhibitor. The reaction procedure was the same as the enzyme reaction mentioned above Section 2.2.

[3] = molecular target: ivacaftor metabolism in rat liver microsomes (RLM); assay: IC50 and inhibition mechanism (Lineweaver-Burk, Ki, αKi) on ivacaftor metabolism in RLM; format: in vitro ADME; conditions: for IC50: ivacaftor 8.8 μM; for Inhibition type: Lineweaver-Burk plots
Protocol: (§1) This system was made up of 200 μL of incubation solution consisting of 0.3 mg/mL RLM or 0.4 mg/mL HLM, 1.0 mM NADPH, pH 7.4 PBS and ivacaftor. […] In HLM, a range of concentrations (0.1, 1, 2, 4, 12, 25 μM) of ivacaftor was used to determine Km. The solution should be pre-incubated at 37°C for 5 min before adding NADPH. Following the addition of NADPH, the mixture should be incubated for 40 min. The reaction should then be stopped at −80°C. After the enzyme reaction was completed, 20 μL of 500 ng/mL IS solution and 400 μL acetonitrile (protein precipitating agent) were added to the mixture. The mixture was vortexed for 2 min and then centrifuged at 13,000 rpm for 10 min. After centrifugation, 100 μL of the supernatant was quantified using UPLC-MS/MS.
(§2) The IC50 values for the inhibitory effects of nisoldipine and nimodipine on ivacaftor in HLM were also determined. […] The final concentration of DMSO in the culture system is less than 1%. […] The incubation and post-treatment procedures were consistent with the enzyme incubation of ivacaftor described above Section 2.2.
(§3) The incubation and post-treatment procedures were consistent with the enzyme incubation of ivacaftor described above Section 2.2.
(§4) Km values, IC50 values, Lineweaver-Burk plots and mean plasma concentration-time curves were all generated using GraphPad Prism 9.0 software (GraphPad Software, Inc., United States). Pharmacokinetic parameters of ivacaftor and M1 were obtained by analyzing them using the non-compartmental model of Drug and Statistics (DAS) (version 3.0, Mathematical Pharmacology Professional Committee of China, Shanghai, China), and a one-way ANOVA was performed to compare the pharmacokinetics of the three groups of rats using SPSS (version 26.0; SPSS Inc., Chicago, IL, United States). A P-value <0.05 was considered statistically significant. Data were represented as mean ± standard deviation (SD).

[4] = molecular target: ivacaftor metabolism in human liver microsomes (HLM); assay: IC50 and inhibition mechanism (Lineweaver-Burk, Ki, αKi) on ivacaftor metabolism in HLM; format: in vitro ADME; conditions: for Inhibition type: Lineweaver-Burk plots; for IC50: ivacaftor 6.8 μM
Protocol: as §1, §2, §3, §4

[5] = system: human liver microsomes (HLM); conditions: read-out: Km (Michaelis-Menten constant); HLM 0.4 mg/mL, 40 min incubation
Protocol: as §1
as §4, with “Data were represented as mean ± standard deviation (SD).” left out

[6] = system: rat liver microsomes (RLM); conditions: read-out: Km (Michaelis-Menten constant); RLM 0.3 mg/mL, 40 min incubation
Protocol: as §1
as §4, with “Data were represented as mean ± standard deviation (SD).” left out

[7] = Pharmacokinetics of ivacaftor and M1 in Sprague-Dawley rats with or without nisoldipine or nimodipine; format: in vivo; conditions: male, rat, plasma, po, ivacaftor 10 mg/kg gavage, nisoldipine 1 mg/kg or nimodipine 10 mg/kg 30 min before
Protocol: The animal study was supervised and approved by Ethics Committee of The First Affiliated Hospital of Wenzhou Medical University (WYYY-IACUC-AEC-2023-065). 12 Sprague-Dawley male rats (220 ± 20 g) were purchased from the First Affiliated Hospital of Wenzhou Medical University and randomly divided into three groups: group A (control), group B (nisoldipine), and group C (nimodipine), with 4 rats in each group. A 12 h fast with no restriction on water intake was conducted prior to the experiment. […] Group B were received nisoldipine (1 mg/kg) via gavage, while group C were received nimodipine (10 mg/kg) via the same method. Group A were given the same volume of CMC-Na to serve as a control. […] Before UPLC-MS/MS analysis, supernatant was mixed with 300 μL acetonitrile and 10 μL IS (500 ng/mL), and then vortexed for 2 min and centrifuged at 13,000 rpm for 10 min at 4°C. Finally, a 100 μL sample of supernatant was collected for UPLC-MS/MS analysis. […] SPSS Inc., Chicago, IL, United States). […] Data were represented as mean ± standard deviation (SD).

[8] = parameters: method as in Schneider et al., 2015; conditions: ref Schneider et al., 2015; cited from earlier work
[9] = parameters: method as in Harbeson et al., 2017; conditions: male rats, gavage of 10 mg/kg ivacaftor alone, PEG400 as solvent; ref Harbeson et al., 2017; cited from earlier work

SMILES: CC(=O)N1CCN(c2ccc(OCC3COC(Cn4ccnc4)(c4ccc(Cl)cc4Cl)O3)cc2)CC1 (stereo not drawn) [ketoconazole]
increase in AUC of ivacaftor when combined with the inhibitor [1]: 8.5 fold

SMILES: CCC(C)n1ncn(-c2ccc(N3CCN(c4ccc(OCC5COC(Cn6cncn6)(c6ccc(Cl)cc6Cl)O5)cc4)CC3)cc2)c1=O (stereo not drawn) [itraconazole]
increase in AUC of ivacaftor when combined with the inhibitor [1]: 15.6 fold

IC50 [3]: 2.17 µM
SMILES: CCOC(=O)C1=C(C)NC(C)=C(C(=O)OCC)C1c1ccccc1/C=C/C(=O)OC(C)(C)C [Lacidipine]
Metabolic rate (Mean ± SD, % of control) [2]: 14.13 ± 1.07 % of control

SMILES: O=C(O)/C=C/c1ccc(O)c(O)c1 [Caffeic acid]
Metabolic rate (Mean ± SD, % of control) [2]: 106.41 ± 1.94 % of control

SMILES: CC(C)=CCC/C(C)=C/C=C/C(C)=C/C=C/C(C)=C/C=C/C=C(C)/C=C/C=C(C)/C=C/C=C(\C)CCC=C(C)C [Lycopene]
Metabolic rate (Mean ± SD, % of control) [2]: 7.16 ± 0.77 % of control

IC50 [3]: 15.6 µM
SMILES: CCOC(=O)C1=C(C)NC(C)=C(C(=O)OC)C1c1cccc(Cl)c1Cl (stereo not drawn) [Felodipine]
Metabolic rate (Mean ± SD, % of control) [2]: 13.47 ± 1.71 % of control

Ki [3]: 3.35 µM
α [3]: 2.53
IC50 [3]: 6.55 µM
IC50 ([3]; listed as nisoldipine): < 10 µM
α ([3]; listed as nisoldipine): 8.48
Ki [4]: 3.92 µM
α [4]: 9.03
IC50 [4]: 9.1 µM
IC50 ([4]; listed as nisoldipine): < 10 µM
α ([4]; listed as nisoldipine): 35.40
SMILES: COC(=O)C1=C(C)NC(C)=C(C(=O)OCC(C)C)C1c1ccccc1[N+](=O)[O-] (stereo not drawn) [Nisoldipine]
Metabolic rate (Mean ± SD, % of control) [2]: 7.29 ± 4.05 % of control
Inhibition type [3]: Non-competitive inhibition and competitive inhibition
Inhibition type ([3]; listed as nisoldipine): mixed inhibition; also recorded: mixed-type of non-competitive and competitive inhibition
Inhibition type [4]: Non-competitive inhibition and competitive inhibition
Inhibition type ([4]; listed as nisoldipine): mixed inhibition; also recorded: mixed-type of non-competitive and competitive inhibition

SMILES: O=C(O)[C@H]1O[C@@H](Oc2cc3oc(-c4ccccc4)cc(=O)c3c(O)c2O)[C@H](O)[C@@H](O)[C@@H]1O [Baicalin]
Metabolic rate (Mean ± SD, % of control) [2]: 50.95 ± 0.08 % of control

SMILES: O=C(O)c1cc(O)c(O)c(O)c1 [Gallic acid]
Metabolic rate (Mean ± SD, % of control) [2]: 95.98 ± 6.77 % of control

Km [5]: 6.8 µM
Km [6]: 8.8 µM
AUC(0-inf) ([7]; n = 4): 9360 ng·h/mL
AUC(0-t) ([7]; n = 4): 8410 ng·h/mL
Cmax ([7]; n = 4): 676 ± 242 ng/mL
CL/F ([7]; n = 4, read-out: CLz/F of ivacaftor (converted)): 18.2 mL/min/kg
half-life ([7]; n = 4, read-out: t1/2 of ivacaftor (converted)): 12.2 ± 4.8 h
SMILES: CC(C)(C)c1cc(C(C)(C)C)c(NC(=O)c2c[nH]c3ccccc3c2=O)cc1O [Ivacaftor, N-(2,4-Di-tert-butyl-5-hydroxyphenyl)-4-oxo-1,4-dihydroquinoline-3-carboxamide]
plasma protein binding [8]: > 97%
AUC(0–24h) of ivacaftor [9]: 22,177 ng/mL*h

SMILES: C=C1CC[C@@H]2[C@](C)(CO)[C@H](O)CC[C@@]2(C)[C@@H]1C/C=C1/C(=O)OC[C@H]1O [Andrographolide]
Metabolic rate (Mean ± SD, % of control) [2]: 81.58 ± 1.22 % of control

SMILES: COc1ccc([C@@H]2CC(=O)c3c(O)cc(O[C@@H]4O[C@H](CO[C@@H]5O[C@@H](C)[C@H](O)[C@@H](O)[C@H]5O)[C@@H](O)[C@H](O)[C@H]4O)cc3O2)cc1O [Hesperiden]
Metabolic rate (Mean ± SD, % of control) [2]: 104.17 ± 3.09 % of control

SMILES: C[N+](C)(C)CC(=O)O [Betaine]
Metabolic rate (Mean ± SD, % of control) [2]: 100.10 ± 4.97 % of control

SMILES: Oc1cc(O)c2c(c1)O[C@H](c1ccc(O)c(O)c1)[C@H](O)C2 [Epicatechin]
Metabolic rate (Mean ± SD, % of control) [2]: 100.31 ± 2.66 % of control

SMILES: COc1ccc2cc3[n+](cc2c1OC)CCc1cc2c(cc1-3)OCO2 [Berberine]
Metabolic rate (Mean ± SD, % of control) [2]: 109.72 ± 0.72 % of control

SMILES: CCC1=C(C)CN(C(=O)NCCc2ccc(S(=O)(=O)NC(=O)N[C@H]3CC[C@H](C)CC3)cc2)C1=O [Glimepiride]
Metabolic rate (Mean ± SD, % of control) [2]: 36.97 ± 1.02 % of control

Ki [3]: 3.26 µM
Inhibition type [3]: Competitive inhibition
IC50 [3]: 4.57 µM
IC50 ([3]; listed as nimodipine): < 10 µM
Ki [4]: 5.87 µM
Inhibition type [4]: Competitive inhibition
IC50 [4]: 7.15 µM
IC50 ([4]; listed as nimodipine): < 10 µM
SMILES: COCCOC(=O)C1=C(C)NC(C)=C(C(=O)OC(C)C)C1c1cccc([N+](=O)[O-])c1 (stereo not drawn) [Nimodipine]
Metabolic rate (Mean ± SD, % of control) [2]: 7.84 ± 0.43 % of control

SMILES: COc1c(O)cc2c(c1O)[C@@H]1O[C@H](CO)[C@@H](O)[C@H](O)[C@H]1OC2=O [Bergenin]
Metabolic rate (Mean ± SD, % of control) [2]: 142.63 ± 33.46 % of control

SMILES: COc1cc2cc(Oc3ccc4ccc(=O)oc4c3)c(=O)oc2cc1O [Daphnoretin]
Metabolic rate (Mean ± SD, % of control) [2]: 69.60 ± 0.85 % of control
